The data set is described as follows: in vitro. The note with it: human, hela cells, % viability.

Regarding `COc1ccc(-c2cc(NC3CCCCC3)ncn2)cc1` [CBK090904], the viability at 28.5 h, 10 µM amounted to 96.8%.

As for `COc1ccc(-c2cc(Nc3ccccc3)ncn2)cc1` [CBK090911], the viability at 28.5 h, 10 µM was 93.9%.

As to `Fc1ccc(-c2cc(Nc3ccccc3)ncn2)cc1F` [CBK090913], the viability at 28.5 h, 10 µM stood at 105%.

Regarding `CN1CCN(c2ccc(-c3cc(Nc4cccc(OCc5ccccc5)c4)ncn3)cn2)CC1` [CBK090918], the viability at 28.5 h, 10 µM turned out to be 113%.

`c1ccc2cc(-c3cc(Nc4ccc(N5CCOCC5)cc4)ncn3)ccc2c1` [CBK090929]: the viability at 28.5 h, 10 µM worked out at 94.2%.

Turning to `COc1ccccc1-c1cc(Nc2ccc(N3CCOCC3)cc2)ncn1` [CBK090933], the viability at 28.5 h, 10 µM came out at 83.7%.

In the case of `FC(F)(F)Oc1ccc(-c2cc(Nc3ccc(N4CCOCC4)cc3)ncn2)cc1` [CBK090934], the viability at 28.5 h, 10 µM worked out at 88.9%.

Consider `CN(C)c1ccc(Nc2cc(-c3ccc(OCc4ccccc4)cc3)ncn2)cc1` [CBK090941], for which the viability at 28.5 h, 10 µM was 113%.

With `CC(C)(C)OC(=O)NCCc1ccc(Nc2cc(-c3ccc4c(c3)OCO4)ncn2)cc1` [CBK090957], the viability at 28.5 h, 10 µM was 92.5%.

For the compound `CC(C)(C)OC(=O)NCCc1ccc(Nc2cc(-c3ccsc3)ncn2)cc1` [CBK090958], the viability at 28.5 h, 10 µM was determined as 115%.

For the compound `CC(C)(C)OC(=O)NCCc1ccc(Nc2cc(-c3cc4ccccc4s3)ncn2)cc1` [CBK090959], the viability at 28.5 h, 10 µM amounted to 94.3%.

Consider `COc1cncc(-c2cc(N3CCC(N4CCCCC4)CC3)ncn2)c1` [CBK090964], for which the viability at 28.5 h, 10 µM turned out to be 90.3%.

On to `Cc1ccc(S(=O)(=O)Nc2ccc(Nc3cc(-c4cc(C(F)(F)F)cc(C(F)(F)F)c4)ncn3)cc2)cc1` [CBK090968], for which the viability at 28.5 h, 10 µM was 99.6%.

With `Cc1ccc(S(=O)(=O)Nc2ccc(Nc3cc(-c4cc5ccccc5o4)ncn3)cc2)cc1` [CBK090976], the viability at 28.5 h, 10 µM was found to be 96.8%.

As for `CCN(CCO)c1ccc(Nc2cc(-c3cc(C(F)(F)F)cc(C(F)(F)F)c3)ncn2)cc1` [CBK090994], the viability at 28.5 h, 10 µM is 106%.

Turning to `CCN(CCO)c1ccc(Nc2cc(-c3cc4ccccc4o3)ncn2)cc1` [CBK090999], the viability at 28.5 h, 10 µM stood at 94.8%.

Consider `COc1ccccc1-c1cc(Nc2cccc(N(C)C)c2)ncn1` [CBK091011], for which the viability at 28.5 h, 10 µM amounted to 95.5%.

`CN(C)c1cccc(Nc2cc(-c3cccc([N+](=O)[O-])c3)ncn2)c1` [CBK091012]: the viability at 28.5 h, 10 µM turned out to be 102%.

Consider `CN(C)c1cccc(Nc2cc(-c3ccco3)ncn2)c1` [CBK091014], for which the viability at 28.5 h, 10 µM was 87.5%.

Turning to `COc1ccc(N2CCN(c3cc(-c4cccc5ccccc45)ncn3)CC2)cc1OC` [CBK091022], the viability at 28.5 h, 10 µM worked out at 43.4%.

For `COc1ccc(N2CCN(c3cc(-c4cccc(NC(C)=O)c4)ncn3)CC2)cc1OC` [CBK091029], the viability at 28.5 h, 10 µM came out at 96.4%.

As for `COc1ccc(Nc2cc(-c3cccc(N)c3)ncn2)c(C)c1` [CBK091035], the viability at 28.5 h, 10 µM came out at 97.1%.

On to `COc1ccc(Nc2cc(-c3cc4ccccc4o3)ncn2)c(C)c1` [CBK091040], for which the viability at 28.5 h, 10 µM is 87.7%.

As for `COc1ccc(Nc2cc(-c3ccc(SC)cc3)ncn2)c(C)c1` [CBK091042], the viability at 28.5 h, 10 µM worked out at 89.2%.

As for `CC(=O)c1ccc(-c2cc(Nc3ccc(O)cc3C)ncn2)s1` [CBK091052], the viability at 28.5 h, 10 µM turned out to be 115%.

Turning to `Cc1cc(O)ccc1Nc1cc(-c2ccc3c(c2)OCO3)ncn1` [CBK091053], the viability at 28.5 h, 10 µM is 92.6%.

In the case of `Cc1cc(O)ccc1Nc1cc(-c2cc3ccccc3s2)ncn1` [CBK091057], the viability at 28.5 h, 10 µM stood at 87%.

`O=C(CN1CCN(c2cc(-c3ccsc3)ncn2)CC1)N1CCCC1` [CBK091074]: the viability at 28.5 h, 10 µM is 99.9%.

Consider `FC(F)(F)c1cc(-c2cc(N3CCN(c4ccccn4)CC3)ncn2)cc(C(F)(F)F)c1` [CBK091082], for which the viability at 28.5 h, 10 µM was 94.5%.

Consider `Clc1ccc(-c2cc(N3CCN(c4ccccn4)CC3)ncn2)cc1` [CBK091085], for which the viability at 28.5 h, 10 µM stood at 112%.

As to `CC(C)Cc1ccc(-c2cc(NCCc3ccccn3)ncn2)cc1` [CBK091088], the viability at 28.5 h, 10 µM turned out to be 99.6%.

With `Nc1ccc(C(=O)Nc2ccc(Nc3cc(-c4ccco4)ncn3)cc2)cc1` [CBK091099], the viability at 28.5 h, 10 µM was determined as 96.5%.

As for `CC(=O)Nc1ccc(-c2cc(Nc3ccc(NC(=O)c4ccc(N)cc4)cc3)ncn2)cc1` [CBK091103], the viability at 28.5 h, 10 µM came to 97%.

With `CC(C)(C)OC(=O)NCc1ccc(-c2cc(N3CCN(C(=O)c4ccco4)CC3)ncn2)cc1` [CBK091107], the viability at 28.5 h, 10 µM came out at 98.3%.

As to `O=C(c1ccco1)N1CCN(c2cc(-c3cc4ccccc4o3)ncn2)CC1` [CBK091114], the viability at 28.5 h, 10 µM was determined as 102%.

On to `CN(C(=O)CN1CCN(c2cc(-c3cc(C(F)(F)F)cc(C(F)(F)F)c3)ncn2)CC1)c1ccccc1` [CBK091125], for which the viability at 28.5 h, 10 µM was 103%.

Regarding `CN(C(=O)CN1CCN(c2cc(-c3cc4ccccc4o3)ncn2)CC1)c1ccccc1` [CBK091128], the viability at 28.5 h, 10 µM was 94%.

Turning to `COc1ccccc1-c1cc(N2CCN(CC(=O)N(C)c3ccccc3)CC2)ncn1` [CBK091136], the viability at 28.5 h, 10 µM amounted to 99%.

As to `CC(C)(C)OC(=O)Nc1ccc(Nc2cc(-c3ccc(F)c(F)c3)ncn2)cc1` [CBK091143], the viability at 28.5 h, 10 µM was found to be 90.1%.

For `Cc1ccc(Nc2cc(-c3cccc(N)c3)ncn2)cc1NS(C)(=O)=O` [CBK091145], the viability at 28.5 h, 10 µM is 99.1%.

On to `Cc1ccc(Nc2cc(-c3cccnc3)ncn2)cc1NS(C)(=O)=O` [CBK091147], for which the viability at 28.5 h, 10 µM is 91.2%.

As to `Cc1ccc(Nc2cc(-c3cc4ccccc4o3)ncn2)cc1NS(C)(=O)=O` [CBK091148], the viability at 28.5 h, 10 µM is 93.6%.

For `Cc1ccc(Nc2cc(-c3cccc4cccnc34)ncn2)cc1NS(C)(=O)=O` [CBK091152], the viability at 28.5 h, 10 µM amounted to 92.4%.

Regarding `CN(C)c1ccc(-c2cc(N3CCN(S(=O)(=O)c4ccc(Cl)cc4)CC3)ncn2)cc1` [CBK091158], the viability at 28.5 h, 10 µM was 93.5%.

Regarding `O=S(=O)(c1ccc(Cl)cc1)N1CCN(c2cc(-c3ccco3)ncn2)CC1` [CBK091161], the viability at 28.5 h, 10 µM came out at 111%.

`c1ccc(-c2cccc(-c3cc(N4CCN(CCN5CCCC5)CC4)ncn3)c2)cc1` [CBK091164]: the viability at 28.5 h, 10 µM was found to be 99.7%.

For `c1ccc(-c2ccc(-c3cc(N4CCN(CCN5CCCC5)CC4)ncn3)cc2)cc1` [CBK091165], the viability at 28.5 h, 10 µM was found to be 99%.

For the compound `c1ccc2sc(-c3cc(N4CCN(CCN5CCCC5)CC4)ncn3)cc2c1` [CBK091172], the viability at 28.5 h, 10 µM came out at 89.3%.

With `COc1ccc(-c2cc(N3CCN(CCN4CCCC4)CC3)ncn2)cc1OC` [CBK091173], the viability at 28.5 h, 10 µM was determined as 94.5%.

With `COc1cc(CNc2cc(-c3ccc(N4CCOCC4)cc3)ncn2)cc(OC)c1OC` [CBK091174], the viability at 28.5 h, 10 µM turned out to be 93.9%.

With `COc1cc(CNc2cc(-c3cccc4oc5ccccc5c34)ncn2)cc(OC)c1OC` [CBK091177], the viability at 28.5 h, 10 µM amounted to 90.3%.

Take `COc1cc(CNc2cc(-c3cccc4cccnc34)ncn2)cc(OC)c1OC` [CBK091179]: the viability at 28.5 h, 10 µM was determined as 76.6%.

In the case of `Nc1cccc(-c2cc(Nc3ccc(C4CCCCC4)cc3)ncn2)c1` [CBK091191], the viability at 28.5 h, 10 µM was found to be 88.8%.

For the compound `CCN(CC)CCN1CCN(c2cc(-c3cccc4ccccc34)ncn2)CC1` [CBK091196], the viability at 28.5 h, 10 µM worked out at 99.9%.

Take `CCN(CC)CCN1CCN(c2cc(-c3ccc(SC)cc3)ncn2)CC1` [CBK091203]: the viability at 28.5 h, 10 µM was determined as 93.3%.

In general, viability refers to a read-out of living cells in per cent, often relative to untreated cells.

The values are drawn from article PMC12040169 (PLOS Biology, 2025).
